According to US8513423B2 (Janssen Pharmaceutica, NV, priority 2010, dated 2013):
Numbering of substitutions follows the chain as printed. Read-outs that look alike come from different tables or passages of the source.

Experiments:
[1] = target: T1, MGL (Rattus norvegicus, UniProt Q8R431); test: 2-AG accumulation assay in rat brain homogenate; type: biochemical; settings: compound @1 μM; for 2-AG accumulation, percent of vehicle control at 1 µM: read-out: Rat Brain 2AG % VehCntrl (%) @1 μM
T1 construct: one g rat brain was homogenized; from tissue; host or cells: rat brain homogenate
T1 sequence (Q8R431 1-303): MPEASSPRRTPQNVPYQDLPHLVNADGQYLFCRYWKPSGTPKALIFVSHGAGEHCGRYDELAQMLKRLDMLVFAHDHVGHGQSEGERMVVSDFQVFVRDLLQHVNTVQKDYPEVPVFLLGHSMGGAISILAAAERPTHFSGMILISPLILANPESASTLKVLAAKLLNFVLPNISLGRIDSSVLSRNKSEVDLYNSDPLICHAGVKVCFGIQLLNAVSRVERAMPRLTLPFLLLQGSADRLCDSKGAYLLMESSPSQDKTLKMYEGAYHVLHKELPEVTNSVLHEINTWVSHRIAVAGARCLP
In short: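 Rat brain homogenate was incubated with compound for 15 min at 37° C., after which CaCl2 was added to a final concentration of 10 mM. Incubation then continued for another 15 min at 37° C. in 5 mL total volume. Reactions were stopped by adding 6 mL of 2:1 chloroform/methanol. 2-AG in the organic phase was quantified by HPLC/MS.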

[2] = target: T2, mutant MGL (Homo sapiens, UniProt Q99685, L169S/L176S); test: MGL ThermoFluor assay - mutant; type: binding
T2 construct: purified mutant MGL (mut-MGLL 11-313 L179S L186S)
T2 sequence (Q99685 1-303 L169S/L176S): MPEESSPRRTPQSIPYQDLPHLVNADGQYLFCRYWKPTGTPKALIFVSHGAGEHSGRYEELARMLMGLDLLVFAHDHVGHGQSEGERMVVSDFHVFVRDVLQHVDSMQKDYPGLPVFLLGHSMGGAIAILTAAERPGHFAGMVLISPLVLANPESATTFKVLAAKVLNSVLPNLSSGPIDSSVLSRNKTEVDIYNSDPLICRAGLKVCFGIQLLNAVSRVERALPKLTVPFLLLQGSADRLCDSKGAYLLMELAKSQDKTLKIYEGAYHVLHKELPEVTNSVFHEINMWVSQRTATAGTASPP
In short: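 Thermal shift binding with 0.07 mg/ml L169S/L176S MGL, 100 μM 1,8-ANS, 200 mM NaCl, 0.001% Tween-20, 50 mM PIPES pH 7.0. Heated 40–90 °C at 1 °C/min, fluorescence (em 500 nm) tracked to give Tm; Kd fitted from 11-point concentration–Tm response, qKd when stocks quantified by qNMR.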

[3] = target: T3, purified wild type MGL (wt-MGLL 6H-11-313) (Homo sapiens, UniProt Q99685); test: MGL enzyme activity assay (4MU-B cleavage), wild type MGL; type: biochemical; settings: 10 μM 4MU-B, 5 nM enzyme, 37° C., read-out: MGL wild type inh IC50
T3 construct: purified wild type MGL (wt-MGLL 6H-11-313)
T3 sequence (Q99685 1-303): T2 sequence (Q99685 1-303 L169S/L176S) with S169L, S176L
In short: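 Enzyme (5 nM final) cleaved 4MU-B (10 μM final) in 20 mM PIPES pH 7.0 with 150 mM NaCl and 0.001% Tween 20. Compounds were tested at 17 to 0.0003 μM final. Fluorescence (ex 335/em 440 nm) was monitored at 37° C for 5 min, and IC50 was fitted from fractional activity versus inhibitor concentration.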

[4] = 0.07 mg/ml mutant MGL, pH=7.0, read-out: MGL mutant ThermoFluor Kd
[5] = compound concentration measured by qNMR, read-out: MGL mutant ThermoFluor qKd (using qNMR conc.)

Compound	2-AG accumulation, percent of vehicle control at 1 µM [1]	Kd [2, 4]	IC50 [3]	Kd [2, 5]	Rat Brain 2AG % VehCntrl (%) @1 μM ([1]; percent vehicle)
O=C(c1cccc(-c2cccc(F)c2)c1)N1CC(C2CCN(C(=O)c3nccs3)CC2)C1 [Cpd 17, 4-{1-[(3′-Fluorobiphenyl-3-yl)carbonyl]azetidin-3-yl}-1-(1,3-thiazol-2-ylcarbonyl)piperidine]	184%	99 nM	17.3 nM		
O=C(c1ccc(-c2cccc(C(F)(F)F)c2)cc1)N1CCC(C2CN(C(=O)c3cscn3)C2)CC1 [Cpd 49, 4-[1-(1,3-Thiazol-4-ylcarbonyl)azetidin-3-yl]-1-{[3′-(trifluoromethyl)biphenyl-4-yl]carbonyl}piperidine]	908%		6 nM	1 nM	
O=C(c1ccc(-c2ccccc2)cc1)N1CC(C2CCN(C(=O)c3ccns3)CC2)C1 [Cpd 3, 4-[1-(Biphenyl-4-ylcarbonyl)azetidin-3-yl]-1-(isothiazol-5-ylcarbonyl)piperidine]	135%	55.7 nM	33.9 nM		
O=C(c1ccc(-c2cccc(C(F)(F)F)c2)cc1)N1CCC(C2CN(C(=O)c3ccc[nH]3)C2)CC1 [Cpd 50, 4-[1-(1H-Pyrrol-2-ylcarbonyl)azetidin-3-yl]-1-{[3′-(trifluoromethyl)biphenyl-4-yl]carbonyl}piperidine]	561%		< 5 nM	1 nM	
O=C(c1ccc(-c2ccc(C(F)(F)F)s2)cc1)N1CC(C2CCN(C(=O)c3ccc[nH]3)CC2)C1 [Cpd 24, 1-(1H-Pyrrol-2-ylcarbonyl)-4-[1-({4-[5-(trifluoromethyl)thiophen-2-yl]phenyl}carbonyl)azetidin-3-yl]piperidine]	298%	19.9 nM	37.9 nM		
O=C(c1ccc2c(ccn2-c2ccc(F)cc2)c1)N1CC(C2CCN(C(=O)c3nccs3)CC2)C1 [Cpd 30, 1-(4-Fluorophenyl)-5-({3-[1-(1,3-thiazol-2-ylcarbonyl)piperidin-4-yl]azetidin-1-yl}carbonyl)-1H-indole]	443%	2.5 nM	< 5 nM		
O=C(c1cccc(-c2cccc(F)c2)c1)N1CCC(C2CN(C(=O)c3cscn3)C2)CC1 [Cpd 52, 1-[(3′-Fluorobiphenyl-3-yl)carbonyl]-4-[1-(1,3-thiazol-4-ylcarbonyl)azetidin-3-yl]piperidine]	193%	30.4 nM	71.5 nM	32.2 nM	
O=C(c1ccc2c(ccn2-c2ccc(C(F)(F)F)cc2)c1)N1CC(C2CCN(C(=O)c3cscn3)CC2)C1 [Cpd 37, 5-({3-[1(1,3 -Thiazol-4-ylcarbonyl)piperidin-4-yl]azetidin-1-yl}carbonyl)-1-[4-(trifluoromethyl)phenyl]-1H-indole]	163%	16 nM	< 5 nM		
O=C(c1ccc[nH]1)N1CCC(C2CN(C(=O)c3sc4cc(C(F)(F)F)ccc4c3Cl)C2)CC1 [Cpd 41, 4-(1-{[3-Chloro-6-(trifluoromethyl)-1-benzothiophen-2-yl]carbonyl}azetidin-3-yl)-1-(1H-pyrrol-2-ylcarbonyl)piperidine]	272%	4.1 nM	< 5 nM	3.1 nM	
O=C(c1ccc2nc(-c3ccccc3)oc2c1)N1CCC(C2CN(C(=O)c3nccs3)C2)CC1 [Cpd 66, 2-Phenyl-6-({4-[1-(1,3-thiazol-2-ylcarbonyl)azetidin-3-yl]piperidin-1-yl}carbonyl)-1,3-benzoxazole]	889%		19.2 nM	6.7 nM	
O=C(c1ccc2c(ccn2-c2ccc(F)cc2)c1)N1CCC(C2CN(C(=O)c3ccc[nH]3)C2)CC1 [Cpd 74, 1-(4-Fluorophenyl)-5-({4-[1-(1H-pyrrol-2-ylcarbonyl)azetidin-3-yl]piperidin-1-yl}carbonyl)-1H-indole]	788%		13.8 nM	8 nM	
O=C(c1ccc2c(ccn2-c2ccc(C(F)(F)F)cc2)c1)N1CC(C2CCN(C(=O)c3ccc[nH]3)CC2)C1 [Cpd 43, 5-({3-[1-(1H-Pyrrol-2-ylcarbonyl)piperidin-4-yl]azetidin-1-yl}carbonyl)-1-[4-(trifluoromethyl)phenyl]-1H-indole]	611%		< 5 nM	26.4 nM	
O=C(c1ccc2c(ccn2-c2ccc(C(F)(F)F)cc2)c1)N1CCC(C2CN(C(=O)c3cscn3)C2)CC1 [Cpd 76, 5-({4-[1(1,3-Thiazol-4-ylcarbonyl)azetidin-3-yl]piperidin-1-yl}carbonyl)-1-[4-(trifluoromethyl)phenyl]-1H-indole]	731%		11.4 nM	8.3 nM	
O=C(c1ccc2c(ccn2-c2ccc(F)cc2)c1)N1CCC(C2CN(C(=O)c3cscn3)C2)CC1 [Cpd 73, 1-(4-Fluorophenyl)-5-({4-[1-(1,3-thiazol-4-ylcarbonyl)azetidin-3-yl]piperidin-1-yl}carbonyl)-1H-indole]	875%		12 nM	4.8 nM	
O=C(c1ccc(Cc2cccc(C(F)(F)F)c2)cc1)N1CCC(C2CN(C(=O)c3ccc[nH]3)C2)CC1 [Cpd 59, 4-[1-(1H-Pyrrol-2-ylcarbonyl)azetidin-3-yl]-1-({4-[3-(trifluoromethyl)benzyl]phenyl}carbonyl)piperidine]	346%	20.2 nM	11 nM	9.4 nM	
1-(1H-Pyrrol-2-ylcarbonyl)-4-[1-({4-3-(trifluoromethyl)benzyl]phenyl}carbonyl)azetidin-3-yl]piperidine [Cpd 25]		27.5 nM	12 nM		540%
O=C(c1cccc(-c2cccc(F)c2)c1)N1CCC(C2CN(C(=O)c3ccc[nH]3)C2)CC1 [Cpd 53, 1-[(3′-Fluorobiphenyl-3-yl)carbonyl]-4-[1-(1H-pyrrol-2-ylcarbonyl)azetidin-3-yl]piperidine]	225%		46.6 nM	33.3 nM	
O=C(c1ccc[nH]1)N1CC(C2CCN(C(=O)c3ccc(-c4ccccc4)cc3F)CC2)C1 [Cpd 47, 1-[(3-Fluorobiphenyl-4-yl)carbonyl]-4-[1-(1H-pyrrol-2-ylcarbonyl)azetidin-3-yl]piperidine]	153%	76.7 nM	37.9 nM	33.3 nM	
O=C(c1ccc(Cc2cccc(C(F)(F)F)c2)cc1)N1CC(C2CCN(C(=O)c3cscn3)CC2)C1 [Cpd 13, 1-(1,3-Thiazol-4-ylcarbonyl)-4-[1-({4-[3-(trifluoromethyl)benzyl]phenyl}carbonyl)azetidin-3-yl]piperidine]	335%	28 nM	< 5 nM		
O=C(c1ccc2c(ccn2-c2ccc(F)cc2)c1)N1CC(C2CCN(C(=O)c3cscn3)CC2)C1 [Cpd 36, 1-(4-Fluorophenyl)-5-({3-[1-(1,3-thiazol-4-ylcarbonyl)piperidin-4-yl]azetidin-1-yl}carbonyl)-1H-indole]	507%	22.5 nM	< 5 nM		
O=C(c1ccc(Cc2cccc(C(F)(F)F)c2)cc1)N1CCC(C2CN(C(=O)c3cscn3)C2)CC1 [Cpd 58, 4-[1-(1,3-Thiazol-4-ylcarbonyl)azetidin-3-yl]-1-({4-[3-(trifluoromethyl)benzyl]phenyl}carbonyl)piperidine]	370%		< 5 nM	6.9 nM	
